In ChEMBL document CHEMBL1132827, “New multidrug resistance modulators from Atractylodis Lanceae Rhizoma” (2000):

Legend:
KB 3-1 [1] = experiment: Cytotoxicity (10 ug/mL) was evaluated against KB-3-1 cell lines by observing the effect on growth of cells tested; assay type: functional, Homo sapiens
KB-C2 [2] = experiment: Inhibition of growth of KB-C2 cells at the dose of 1 ug/mL of compound in presence of 0.1 ug/mL of colchicine
KB 3-1 [3] = experiment: Cytotoxicity (1 ug/mL) was evaluated against KB-3-1 cell lines by observing the effect on growth of cells tested; assay type: functional, Homo sapiens
KB 3-1 [4] = experiment: Cytotoxicity (3 ug/mL) was evaluated against KB-3-1 cell lines by observing the effect on growth of cells tested; assay type: functional, Homo sapiens
KB-C2 [5] = experiment: Inhibition of growth of KB-C2 cells at the dose of 3 ug/mL of compound in presence of 0.1 ug/mL of colchicine
KB-C2 [6] = experiment: Inhibition of growth of KB-C2 cells at the dose of 10 ug/mL of compound in presence of 0.1 ug/mL of colchicine

Row | SMILES | Inhibition (KB 3-1 [1]) [%] | Inhibition (KB-C2 [2]) [%] | Inhibition (KB 3-1 [3]) [%] | Inhibition (KB 3-1 [4]) [%] | Inhibition (KB-C2 [5]) [%] | Inhibition (KB-C2 [6]) [%]
1 | CC(C)CC(=O)OC[C@H]1O[C@@](COC(=O)CC(C)C)(O[C@@H]2O[C@H](CO)[C@@H](O)[C@H](O)[C@H]2OC(=O)CC(C)C)[C@@H](OC(=O)CC(C)C)[C@@H]1O.CC[C@@H](C)C(=O)OC[C@@]1(O[C@@H]2O[C@H](CO)[C@@H](O)[C@H](O)[C@H]2OC(=O)CC(C)C)O[C@H](COC(=O)CC(C)C)[C@@H](O)[C@@H]1OC(=O)CC(C)C | 20 | 23 | 17 | 19 | 32 | 33
2 | CC(C)CC(=O)OC[C@H]1O[C@@](COC(=O)C(C)C)(O[C@@H]2O[C@H](CO)[C@@H](O)[C@H](O)[C@H]2OC(=O)CC(C)C)[C@@H](OC(=O)CC(C)C)[C@@H]1OC(=O)CC(C)C.CC(C)CC(=O)OC[C@H]1O[C@@](COC(=O)CC(C)C)(O[C@@H]2O[C@H](CO)[C@@H](O)[C@H](O)[C@H]2OC(=O)CC(C)C)[C@@H](OC(=O)CC(C)C)[C@@H]1OC(=O)C(C)C.CC[C@@H](C)C(=O)OC[C@@]1(O[C@@H]2O[C@H](CO)[C@@H](O)[C@H](O)[C@H]2OC(=O)CC(C)C)O[C@H](COC(=O)CC(C)C)[C@@H](OC(=O)C(C)C)[C@@H]1OC(=O)CC(C)C.CC[C@@H](C)C(=O)O[C@@H]1[C@@H](COC(=O)CC(C)C)O[C@@](COC(=O)C(C)C)(O[C@@H]2O[C@H](CO)[C@@H](O)[C@H](O)[C@H]2OC(=O)CC(C)C)[C@H]1OC(=O)CC(C)C | 94 | 38 | 6 | 13 | 83 | 96
3 | CC(C)CC(=O)OC[C@H]1O[C@@](COC(=O)CC(C)C)(O[C@H]2O[C@H](CO)[C@@H](O)[C@H](O)[C@H]2OC(=O)CC(C)C)[C@@H](OC(=O)CC(C)C)[C@@H]1OC(=O)CC(C)C.CC[C@@H](C)C(=O)OC[C@@]1(O[C@H]2O[C@H](CO)[C@@H](O)[C@H](O)[C@H]2OC(=O)CC(C)C)O[C@H](COC(=O)CC(C)C)[C@@H](OC(=O)CC(C)C)[C@@H]1OC(=O)CC(C)C.CC[C@@H](C)C(=O)O[C@@H]1[C@@H](COC(=O)CC(C)C)O[C@@](COC(=O)CC(C)C)(O[C@H]2O[C@H](CO)[C@@H](O)[C@H](O)[C@H]2OC(=O)CC(C)C)[C@H]1OC(=O)CC(C)C | 95 | 57 | 11 | 14 | 86 | 96
